Columns and labels:
C10 cells = test: In situ detection of S-nitrosylated proteins in intact cells (biotin derivatization, streptavidin-FITC, confocal microscopy); type: cell-based, mouse; details: 1 mM, 1 hour
Procedure: A line of spontaneously transformed mouse lung alveolar type II epithelial cells (C10) was used in some experiments, as described below. C10 cells were cultured in CMRL1066 medium containing 10% fetal bovine serum (FBS, GIBCO). In experiments involving microscopic analysis, the cells were grown on glass cover slips. At about one hour prior to exposure to a test agent, the medium was switched to phenol red free DMEM/F12 containing 0.5% FBS. Some cells were exposed to S-nitroso-glutathione (GSNO) or S-nitroso-N-acetyl penicillamine (SNAP) for about 1 hour, in the presence of an equimolar concentration of freshly prepared L-cysteine. To monitor S-nitrosylation in response to NOS2 activation, the cells were treated with 10 ng/ml TNF alpha (TNFα) and 100 U/ml interferon gamma (IFNγ), for about 24 hours. Incubation with L-N-monomethyl arginine (L-NMMA) for about 16 hours was used to inhibit endogenous NO production and D-NMMA (D-N-monomethyl arginine) was used as a control. Nuclear export was blocked by leptomycin B (5 ng/ml, exposure for about 12 hours). All experiments were performed in duplicate and were repeated at least three times.
To evaluate the localization of S-nitrosylated proteins in intact cells, the biotin derivatization method described above was used in combination with fluorophore labeling and visualized using confocal microscopy. Cells grown on cover slips were rinsed with PBS containing 0.1 mM EDTA and 0.01 mM neocuproine, and fixed in 4% PFA (paraformaldehyde) for 20 minutes at RT. The cells were permeabilized, and protein SH groups were blocked using HEN buffer containing 2.5% SDS, 0.5% CHAPS, and 20 mM MMTS (methylmethanethiosulfonate) for 20 min at 55° C. with constant shaking. After removal of MMTS, the cells were incubated with 1 mM sodium ascorbate and 0.4 mM biotin-HPDP (N-[6-(biotinamido)hexyl]-3′-(2′-pyridyldithio)propionamide) for about an hour at RT, and the cover slips were then incubated overnight with streptavidin-FITC at 4° C. Blocking was performed using 20 mM NEM for 30 minutes at 4° C., followed by incubation with 0.05 mM MPB and 1 mM sodium ascorbate for 1 hour at RT. The nuclei were stained with 10 microgram/ml PI (propidium iodide) for 30 minutes at RT. The cells were analyzed by confocal microscopy (magnification 40×) using an Olympus BX50 microscope coupled to a Bio-Rad (Hercules Calif.) MRC 1024 confocal scanning laser microscope system. Control experiments were also performed in which blocking of SH groups was omitted, or in which 100 micromolar HgCl2 was added prior to blocking of SH groups with MMTS or NEM. To assess the contribution of endogenous biotinylated proteins, the biotin-label was omitted in some control cover slips. All manipulations were performed in the dark. […]

RanGTPase [1] = target: T1, RanGTPase (Mus musculus, UniProt P62827); test: Biotin derivatization of RanGTPase, immunoprecipitation, Western blot with streptavidin-HRP; type: cell-based; details: after treatment of cells, versus basal
T1 construct: Ran was immunoprecipitated from equivalent amounts of total cell lysates; endogenous in cells; host or cells: C10 mouse lung alveolar type II epithelial cells
Procedure: Biotin labeling of S-nitrosylated proteins in cell lysates proceeded as follows. At selected time points, cells were rinsed with PBS containing 0.1 mM EDTA and 0.01 mM neocuproine and lysed in HEN buffer containing 0.1% SDS, 0.5% CHAPS, and 20 mM NEM (N-ethylmaleimide) by rocking for 30 minutes at 4° C. The lysates were centrifuged at 14,000 g at 4° C. for about 10 minutes, and the excess NEM used to block sulfhydryl groups (SH) was removed by protein precipitation with acetone. The pellets were resuspended in HEN buffer containing 1% SDS (HENS), and the S-nitrosothiols were reduced and biotinylated by the simultaneous addition of 10 mM sodium ascorbate and 0.05 mM of the sulfhydryl-specific biotinylating agent, MPB (N-(3-maleimidylpropionyl) biocytin, Molecular Probes), for 1 hour at room temperature (RT, about 25° C.). […] Biotinylation of Ran was detected using streptavidin-HRP. […]
To confirm that RanGTPase itself was S-nitrosylated, a biotin derivatization approach was used, including immunoprecipitating RanGTPase and determining biotinylated RanGTPase by Western blotting using streptavidin-HRP. […] Ran was immunoprecipitated from total cell lysates, and biotinylated RanGTPase was determined by Western blotting and by peroxidase-conjugated streptavidin (FIG. 7C, upper panel). […] In the lower panel of FIG. 7C, as a loading control, Ran was detected in whole cell lysates by Western blotting.

[2] = tested on: Mouse lung epithelial (C10) cells; test: NO/S-nitrosothiol content of cell lysates by chemiluminescence; type: cell-based; details: 1 mM GSNO, about one hour
Procedure: A line of spontaneously transformed mouse lung alveolar type II epithelial cells (C10) was used in some experiments, as described below. […] In experiments involving microscopic analysis, the cells were grown on glass cover slips. At about one hour prior to exposure to a test agent, the medium was switched to phenol red free DMEM/F12 containing 0.5% FBS. Some cells were exposed to S-nitroso-glutathione (GSNO) or S-nitroso-N-acetyl penicillamine (SNAP) for about 1 hour, in the presence of an equimolar concentration of freshly prepared L-cysteine. To monitor S-nitrosylation in response to NOS2 activation, the cells were treated with 10 ng/ml TNF alpha (TNFα) and 100 U/ml interferon gamma (IFNγ), for about 24 hours. […] S-nitrosothiols were detected in cell lysates or immunoprecipitated protein by chemiluminescence, using a nitric oxide analyzer (Ionics, Boulder, Colo.). […] In order to eliminate the contribution of nitrites to the observed photoelectric signal, the cell lysates were incubated with a nitrite quencher, sulfanilamide, and assessed the sulfanilamide resistant NO signal by chemiluminescence. Under these experimental conditions, employing 12 micrograms of protein, S-nitrosthiol was not detected in the sham controls (<5 pmol), but a sulfamilamide-resistant NO signal was detected in lysates from cells treated with GSNO.

lungs of Balb/c mice = test: Detection of S-nitrosylated proteins in frozen lung sections after intratracheal administration; type: in vivo, mouse; details: 50 microliters of 10 mM intratracheally, about 2 hours, versus PBS
RanGTPase [3] = target: T1, RanGTPase; test: SNO content of immunoprecipitated RanGTPase by chemiluminescence; type: cell-based; details: 1 mM, about 1 hour
Procedure: S-nitrosothiols were detected in cell lysates or immunoprecipitated protein by chemiluminescence, using a nitric oxide analyzer (Ionics, Boulder, Colo.). Cell lysates were incubated for about 15 minutes in the presence or absence of sulfanilamide (0.5%).
Ran was immunoprecipitated from equivalent amounts of total cell lysates, using a Ran goat polyclonal IgG (Santa Cruz) and protein G-agarose beads. The immunoprecipitates were washed three times with HEN buffer (25 mM HEPES, pH 7.7, 0.1 mM EDTA, 0.01 mM neocuproine) and the immunocomplexes were injected into the purge vessel for NO analysis.
Chemiluminescence was first performed to detect the S-nitrosylation of immunoprecipitated RanGTPase. […] In these experiments, the cells were treated with 1 mM GSNO for about 1 hour, washed, and Ran was immunoprecipitated form the total lysate using a Ran-specific antibody and protein G agarose beads. The immunocomplexes were washed three times and directly injected into the purge vessel using techniques similar to those described in Example 1. As a control, pre-immune IgG was used instead of Ran antibody. Western blot analysis confirmed the presence of RanGTPase in the immunocomplexes (FIG. 7B).

## N[C@@H](CCC(=O)N[C@@H](CSN=O)C(=O)NCC(=O)O)C(=O)O [GSNO, S-nitroso-glutathione]
C10 cells
  biotinylation (S-nitrosylated proteins) in intact cells: enhanced
RanGTPase [1]
  biotinylation of RanGTPase: enhanced
[2]; 12 micrograms of protein
  sulfanilamide-resistant NO signal (S-nitrosothiol) in lysates: detected
[2]; versus non-treated cells
  total NO content in lysates: increased
Lungs of Balb/c mice
  biotin reactivity (S-nitrosylated proteins) in lungs: markedly increased
RanGTPase [3]
  SNO content of immunoprecipitated RanGTPase: increase

From patent publication US20050238734A1, “Detection of nitrosylated proteins” (University of Vermont and State Agricultural College, priority 2004, published 2005)
